Values quoted from earlier work as cited in patent US10912731B2, “Biphasic oral care compositions” (Colgate-Palmolive Company, priority 2017, dated 2021).

Conditions: aqueous solution

NCCCC[C@H](N)C(=O)O [lysine]
Isoelectric point: 9.7 pH
